According to patent EP4385491A1, “PH-STABLE BIOTECHNOLOGY COMPOSITION BASED ON LACCASE FOR TARGETED DEGRADATION OF COLOURED MELANOIDINES AND/OR PHENOLIC ORGANIC COMPOUNDS ON DENSE SURFACES” (SkyLab AG, priority 2022, dated 2024):

Conditions: pH 3.0, coffee solution, 60 min

OO [0.01% hydrogen peroxide solution, hydrogen peroxide]
Degradation of melanoidins and phenolic organic compounds, % (40 ± 1°C, 325 nm, laccase 0.25 wt.% raw material (0.0875 wt.% active), hydrogen peroxide 0.01%): -6.0% | activity against melanoidins and phenolic organic compounds (in words): low degradation
